The values below come from patent US20260014147A1, “STAT6 DEGRADERS” (Gilead Sciences, Inc., priority 2024, published 2026).

The test concerns the target T1, STAT6 (endogenous, HiBiT-tagged) in HeLa LgBiT clone 4.14 cells (Homo sapiens, UniProt P42226).
T1 construct: These cells express endogenous STAT6; host or cells: HeLa LgBiT clone 4.14
T1 sequence (P42226 1-847): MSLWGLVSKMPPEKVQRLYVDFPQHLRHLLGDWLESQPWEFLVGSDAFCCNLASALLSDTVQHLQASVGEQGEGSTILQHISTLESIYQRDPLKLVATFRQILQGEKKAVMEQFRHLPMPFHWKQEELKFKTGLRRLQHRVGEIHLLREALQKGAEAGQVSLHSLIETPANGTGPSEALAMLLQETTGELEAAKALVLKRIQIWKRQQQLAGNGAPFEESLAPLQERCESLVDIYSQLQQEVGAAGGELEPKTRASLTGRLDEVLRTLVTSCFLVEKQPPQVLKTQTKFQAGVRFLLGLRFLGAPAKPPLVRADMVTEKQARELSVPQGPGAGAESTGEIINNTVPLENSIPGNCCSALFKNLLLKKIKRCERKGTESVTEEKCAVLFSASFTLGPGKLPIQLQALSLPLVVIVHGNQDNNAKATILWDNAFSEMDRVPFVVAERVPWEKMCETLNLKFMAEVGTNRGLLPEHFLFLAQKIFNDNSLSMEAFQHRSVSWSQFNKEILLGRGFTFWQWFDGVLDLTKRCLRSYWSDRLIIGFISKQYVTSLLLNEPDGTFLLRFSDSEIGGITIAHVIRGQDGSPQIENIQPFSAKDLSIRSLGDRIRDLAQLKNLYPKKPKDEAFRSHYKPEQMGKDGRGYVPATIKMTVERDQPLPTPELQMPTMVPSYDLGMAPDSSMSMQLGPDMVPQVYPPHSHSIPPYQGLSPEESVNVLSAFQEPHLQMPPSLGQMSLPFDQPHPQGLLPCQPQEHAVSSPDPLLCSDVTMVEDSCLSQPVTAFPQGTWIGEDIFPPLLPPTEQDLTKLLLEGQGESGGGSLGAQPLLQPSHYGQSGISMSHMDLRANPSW
Put plainly: STAT6 Degrader Assay (HiBiT based, HeLa LgBiT clone 4.14 cells, luminescence, DC50). Format: cell-based. Particulars: geometric mean; for DC50: DC50 provided for test compounds with >80% Emax, read-out: STAT6 degradation DC50; for Emax: Emax provided for test compounds with <80% Emax (and 2c15), read-out: STAT6 degradation Emax. In short, it runs like this: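 HeLa LgBiT clone 4.14 cells carry CRISPR-inserted HiBiT on endogenous STAT6; 5000 cells/well were exposed to compound for 4-24 h at 37 °C, 5% CO2. Nano-Glo substrate added for 0.5 h; luminescence reflects remaining STAT6, with terfenadine ([…]) wells defining 100% degradation.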
A general note: The HiBiT peptide binds its large partner to form an active luciferase.

Regarding `COCc1nc2cc(-c3ccnc4c3cc(CN3CCC(c5ccc(C(=O)N6CCC(CN7CCN(c8ccc(NC9CCC(=O)NC9=O)c(F)n8)CC7)CC6)cc5)CC3)n4C)ccc2[nH]1` (stereo not shown) [Example 2n3, 3-((2-fluoro-6-(4-((1-(4-(1-((4-(2-(methoxymethyl)-1H-benzo[d]imidazol-5-yl)-1-methyl-1H-pyrrolo[2,3-b]pyridin-2-yl)methyl)piperidin-4-yl)benzoyl)piperidin-4-yl)methyl)piperazin-1-yl)pyridin-3-yl)amino)piperidine-2,6-dione], the DC50 came to 19.8 nM. For the compound `Cn1c(CN2CCC(c3ccc(C(=O)N4CCC(CN5CCN(c6ccc(NC7CCC(=O)NC7=O)c(F)n6)CC5)CC4)cc3)CC2)cc2c(-c3ccc(N)nc3)ccnc21` (stereo not shown) [Example 2n4, 3-((6-(4-((1-(4-(1-((4-(6-aminopyridin-3-yl)-1-methyl-1H-pyrrolo[2,3-b]pyridin-2-yl)methyl)-piperidin-4-yl)benzoyl)piperidin-4-yl)methyl)piperazin-1-yl)-2-fluoropyridin-3-yl)amino)piperidine-2,6-dione], the Emax is 70 to 80%. Same read-out and setting: the same measure for `Cn1c(CN2CCC(c3ccc(C(=O)N4CCC(CN5CCN(c6ncc(NC7CCC(=O)NC7=O)cc6F)CC5)CC4)cc3)CC2)cc2c(-c3ccc(N)nc3)ccnc21` (stereo not shown) [Example 2n5, 3-((6-(4-((1-(4-(1-((4-(6-aminopyridin-3-yl)-1-methyl-1H-pyrrolo[2,3-b]pyridin-2-yl)methyl)-piperidin-4-yl)benzoyl)piperidin-4-yl)methyl)piperazin-1-yl)-5-fluoropyridin-3-yl)amino)piperidine-2,6-dione]: 60 to 70%. On to `COCc1nc2cc(-c3ccnc4c3cc(CN3CCC(c5ccc(C(=O)N6CCC(CN7CCN(c8ncc(NC9CCC(=O)NC9=O)cc8F)CC7)CC6)cc5)CC3)n4C)ccc2[nH]1` (stereo not shown) [Example 2n6, 3-((5-fluoro-6-(4-((1-(4-(1-((4-(2-(methoxymethyl)-1H-benzo[d]imidazol-5-yl)-1-methyl-1H-pyrrolo[2,3-b]pyridin-2-yl)methyl)piperidin-4-yl)benzoyl)piperidin-4-yl)methyl)piperazin-1-yl)pyridin-3-yl)amino)piperidine-2,6-dione], for which the DC50 was found to be 11.7 nM. Take `C[C@@H](c1cc2c(-c3ccc4[nH]ncc4c3)ccnc2n1C)N1CCC(c2ccc(C(=O)N3CCC(CN4CCN(c5ccc(NC6CCC(=O)NC6=O)c(F)n5)CC4)CC3)cc2)CC1` (stereo partly drawn) [Example 2n7, 3-((6-(4-((1-(4-(1-((S)-1-(4-(1H-indazol-5-yl)-1-methyl-1H-pyrrolo[2,3-b]pyridin-2-yl)ethyl)-piperidin-4-yl)benzoyl)piperidin-4-yl)methyl)piperazin-1-yl)-2-fluoropyridin-3-yl)amino)piperidine-2,6-dione]: the DC50 was 18 nM. Consider `C[C@@H](c1cc2c(-c3ccc4[nH]ncc4c3)ccnc2n1C)N1CCC(c2ccc(C(=O)N3CCC(CN4CCN(c5ncc(NC6CCC(=O)NC6=O)cc5F)CC4)CC3)cc2)CC1` (stereo partly drawn) [Example 2n8, 3-((6-(4-((1-(4-(1-((S)-1-(4-(1H-indazol-5-yl)-1-methyl-1H-pyrrolo[2,3-b]pyridin-2-yl)ethyl)-piperidin-4-yl)benzoyl)piperidin-4-yl)methyl)piperazin-1-yl)-5-fluoropyridin-3-yl)amino)piperidine-2,6-dione], for which the DC50 was determined as 6.5 nM. Turning to `COCc1nc2cc(-c3ccnc4c3cc([C@H](C)N3CCC(c5ccc(C(=O)N6CCC(CN7CCN(c8ccc(NC9CCC(=O)NC9=O)c(F)n8)CC7)CC6)cc5)CC3)n4C)ccc2[nH]1` (stereo partly drawn) [Example 2n11, 3-((2-fluoro-6-(4-((1-(4-(1-((S)-1-(4-(2-(methoxymethyl)-1H-benzo[d]-imidazol-5-yl)-1-methyl-1H-pyrrolo[2,3-b]pyridin-2-yl)ethyl)piperidin-4-yl)benzoyl)-piperidin-4-yl)methyl)piperazin-1-yl)pyridin-3-yl)amino)piperidine-2,6-dione], the Emax is 70 to 80%. `CNc1ccc(-c2ccnc3c2cc([C@H](C)N2CCC(c4ccc(C(=O)N5CCC(CN6CCN(c7ncc(NC8CCC(=O)NC8=O)cc7F)CC6)CC5)cc4)CC2)n3C)cn1` (stereo partly drawn) [Example 2n13, 3-((5-fluoro-6-(4-((1-(4-(1-((S)-1-(1-methyl-4-(6-(methylamino)pyridin-3-yl)-1H-pyrrolo[2,3-b]pyridin-2-yl)ethyl)piperidin-4-yl)benzoyl)piperidin-4-yl)methyl)-piperazin-1-yl)pyridin-3-yl)amino)piperidine-2,6-dione]: the DC50 was 30 nM and the maximal effect (Emax) was 79.3%. On to `CNc1ccc(-c2ccnc3c2cc([C@H](C)N2CCC(c4ccc(C(=O)N5CCC(CN6CCN(c7ccc(NC8CCC(=O)NC8=O)c(F)n7)CC6)CC5)cc4)CC2)n3C)cn1` (stereo partly drawn) [Example 2n14, 3-((2-fluoro-6-(4-((1-(4-(1-((S)-1-(1-methyl-4-(6-(methylamino)pyridin-3-yl)-1H-pyrrolo[2,3-b]pyridin-2-yl)ethyl)piperidin-4-yl)benzoyl)piperidin-4-yl)methyl)piperazin-1-yl)pyridin-3-yl)amino)piperidine-2,6-dione], for which the DC50 was 49 nM. Regarding `CN(C(=O)c1ccc(C2CCN(Cc3cc4c(-c5ccc(N)nc5)ccnc4n3C)CC2)cc1)c1ccc(CC2CCN(c3ccc(NC4CCC(=O)NC4=O)cc3)CC2)cc1` (stereo not shown) [Example 2o1, 4-(1-((4-(6-aminopyridin-3-yl)-1-methyl-1H-pyrrolo[2,3-b]pyridin-2-yl)-methyl)piperidin-4-yl)-N-(4-((1-(4-((2,6-dioxopiperidin-3-yl)amino)phenyl)piperidin-4-yl)methyl)phenyl)-N-methylbenzamide], the Emax lay within 50 to 60%.

Regarding `CN(C(=O)c1ccc(C2CCN(Cc3cc4c(-c5ccc6[nH]ncc6c5)ccnc4n3C)CC2)cc1)c1ccc(CC2CCN(c3ccc(NC4CCC(=O)NC4=O)cc3)CC2)cc1` (stereo not shown) [Example 2o2, 4-(1-((4-(1H-indazol-5-yl)-1-methyl-1H-pyrrolo[2,3-b]pyridin-2-yl)methyl)-piperidin-4-yl)-N-(4-((1-(4-((2,6-dioxopiperidin-3-yl)amino)phenyl)piperidin-4-yl)methyl)-phenyl)-N-methylbenzamide], the Emax lay in the range of 60 to 70%.

`Cn1c(CN2CCC(c3ccc(C(=O)N4CCC(CN5CCC(N6CCN(c7ccc(NC8CCC(=O)NC8=O)cc7F)CC6)C(F)(F)C5)CC4)cc3)CC2)cc2c(-c3ccc4[nH]ncc4c3)ccnc21` (stereo not shown) [Example 2p1, 3-((4-(4-(1-((1-(4-(1-((4-(1H-indazol-5-yl)-1-methyl-1H-pyrrolo[2,3-b]pyridin-2-yl)methyl)-piperidin-4-yl)benzoyl)piperidin-4-yl)methyl)-3,3-difluoropiperidin-4-yl)piperazin-1-yl)-3-fluorophenyl)-amino)piperidine-2,6-dione]: the DC50 amounted to 36.9 nM. In the case of `Cn1c(CN2CCC(c3ccc(C(=O)N4CCC(CN5CCC(N6CCN(c7ccc(NC8CCC(=O)NC8=O)cc7F)CC6)C(F)(F)C5)CC4)cc3)CC2)cc2c(-c3ccc(N)nc3)ccnc21` (stereo not shown) [Example 2p2, 3-((4-(4-(1-((1-(4-(1-((4-(6-aminopyridin-3-yl)-1-methyl-1H-pyrrolo[2,3-b]pyridin-2-yl)-methyl)piperidin-4-yl)benzoyl)piperidin-4-yl)methyl)-3,3-difluoropiperidin-4-yl)piperazin-1-yl)-3-fluorophenyl)amino)piperidine-2,6-dione], the DC50 came to 61 nM. For `COCc1nc2cc(-c3ccnc4c3cc(CN3CCC(c5ccc(C(=O)N6CCC(CN7CCC(N8CCN(c9ccc(NC%10CCC(=O)NC%10=O)cc9F)CC8)C(F)(F)C7)CC6)cc5)CC3)n4C)ccc2[nH]1` (stereo not shown) [Example 2p3, 3-((4-(4-(3,3-difluoro-1-((1-(4-(1-((4-(2-(methoxymethyl)-1H-benzo[d]imidazol-5-yl)-1-methyl-1H-pyrrolo[2,3-b]pyridin-2-yl)methyl)piperidin-4-yl)benzoyl)piperidin-4-yl)methyl)piperidin-4-yl)piperazin-1-yl)-3-fluorophenyl)amino)piperidine-2,6-dione], the DC50 came out at 20.6 nM. On to `Cn1c(CN2CCC(c3ccc(C(=O)N4CCn5c(CN6CCC(c7ccc(NC8CCC(=O)NC8=O)cc7F)CC6)nnc5C4)cc3)CC2)cc2c(-c3ccc(N)nc3)ccnc21` (stereo not shown) [Example 2q1, 3-((4-(1-((7-(4-(1-((4-(6-aminopyridin-3-yl)-1-methyl-1H-pyrrolo[2,3-b]pyridin-2-yl)methyl)piperidin-4-yl)benzoyl)-5,6,7,8-tetrahydro-[1,2,4]triazolo[4,3-a]pyrazin-3-yl)methyl)piperidin-4-yl)-3-fluorophenyl)amino)piperidine-2,6-dione], for which the Emax is 40 to 50%.

As a reminder, the DC50 is the midpoint of the concentration-degradation curve. For orientation: Emax means the size of the effect at its maximum, as opposed to the concentration needed.
